# Marks after values point to notes of the source that are not given here. Bridge positions count the residues as written; N and C are the ends. Ends that are not written are not given here. I, II: the chains in the order shown.
# How the values were obtained:
# [1] = ANTS/DPX leakage of POPE/POPG LUVs; type: biochemical; conditions: for Leakage: POPE/POPG LUVs, lipid 50 μM, pH 7.4, 37°C
# Method: (§1) Large unilamellar vesicles (LUVs) of ∼100 nm size were prepared and assayed for AMP-induced fluorescence leakage as described previously ([23]). Intrinsic lipid curvatures were determined using a SAXSpace small-angle x-ray camera (Anton Paar, Graz, Austria) applying previously developed procedures ([24]). Monte Carlo (MC) simulations were performed using the Metropolis scheme and computationally efficient implicit-solvent coarse-grained models. Lipids were described by a three-bead model developed by Cooke and Deserno ([25]), and the peptide was modeled by a patchy spherocylinder ([26]). Free-energy calculations for peptide translocation were performed using the Wang-Landau method ([27]). For details of experimental and simulation procedures, see the Supporting Material. […]
# Lipid films (20 mg total lipid) for dye-release experiments were prepared by mixing the appropriate amounts of dissolved phospholipids before evaporation of solvents under a stream of nitrogen and stored in vacuum overnight. After addition of Hepes buffer containing the fluorophor/quencher ANTS/DPX (10 mM Hepes, 68 mM NaCl, 12.5 mM ANTS, 45 mM DPX, pH 7.4), formation of lipid vesicles was achieved by equilibration at 15°C above the lipid’s melting temperature and intermittent vigorous vortex mixing. PE/PG-mixtures were additionally homogenized by six freeze/thaw-cycles. Large unilamellar vesicles (LUVs) were obtained by 25 cycles of extrusion of the hydrated liposomes through a polycarbonate filter (Millipore-IsoporeTM, Merck, Vienna) of 0.1 µm pore size above the lipid’s melting temperature. Non-encapsulated fluorophore and quencher were removed by size-exclusion chromatography using SephadexTM G-75 (Sigma-Aldrich, Vienna) gel as described earlier (1). LUVs were eluted with Hepes buffer (10 mM Hepes, 140 mM NaCl, pH 7.4). Liposomal lipids were quantified by the determination of lipid phosphorus according the method described by (2). The final LUV concentration for dye-release experiments was adjusted to 50 µM in Hepes buffer (10 mM Hepes, 140 mM NaCl, pH 7.4). […]
# Leakage of the aqueous content of ANTS/DPX-loaded LUVs upon incubation with peptides was determined according to (9) and as detailed previously (1). Briefly, 2 ml of LUV suspension was filled into quartz cuvettes and equilibrated at 37°C for 5 minutes. Incremental amounts of peptide solutions prepared in Hepes buffer were added to the LUV suspension with µ-pipettes and mixed using a magnetic stirrer to achieve final peptide concentrations ranging from 0.016 - 1 μM, corresponding to peptide-to-lipid molar ratios from 1:3200 to 1:50. Fluorescence emission was recorded 5 minutes before and after the addition of peptides on a Cary Eclipse Fluorescence Spectrophotometer (Varian Inc., now Agilent Technologies, California, US) using an excitation wavelength of λex = 360 nm and an emission wavelength λem = 530 nm. The slit widths for excitation and emission monochromators were set to 10 nm.
# (§2) Percentage of leakage was calculated from the fraction of the leakage (10) […]
# (§3) where F is the measured fluorescence, F0 is the initial fluorescence without peptide, and Fmax is the fluorescence corresponding to 100% leakage gained by addition of 1% Triton X-100. […]
# In order to verify the dimeric or monomeric state of peptides, 2 µg of peptides were dissolved in loading buffer without DTT and separated by a one-dimensional SDS-PAGE using 5 % stacking and 18 % separating gels according to the method of Laemmli (11). […]
# [2] = ANTS/DPX leakage of POPC/Chol LUVs; type: biochemical; conditions: lipid 50 μM; for Leakage: dimers and mixture, highest concentration studied (1 μM), pH 7.4, 37°C
# Method: as §1
# Lipid films (20 mg total lipid) for dye-release experiments were prepared by mixing the appropriate amounts of dissolved phospholipids before evaporation of solvents under a stream of nitrogen and stored in vacuum overnight. After addition of Hepes buffer containing the fluorophor/quencher ANTS/DPX (10 mM Hepes, 68 mM NaCl, 12.5 mM ANTS, 45 mM DPX, pH 7.4), formation of lipid vesicles was achieved by equilibration at 15°C above the lipid’s melting temperature and intermittent vigorous vortex mixing. […] Liposomal lipids were quantified by the determination of lipid phosphorus according the method described by (2). […]
# Leakage of the aqueous content of ANTS/DPX-loaded LUVs upon incubation with peptides was determined according to (9) and as detailed previously (1). […] Fluorescence emission was recorded 5 minutes before and after the addition of peptides on a Cary Eclipse Fluorescence Spectrophotometer (Varian Inc., now Agilent Technologies, California, US) using an excitation wavelength of λex = 360 nm and an emission wavelength λem = 530 nm. […]
# as §2, §3
# E. coli K12 = experiment: MIC, inhibition of bacterial growth (turbidimetric, Bioscreen C); type: cell-based, Escherichia coli; conditions: E. coli K12, Mueller-Hinton broth without Ca2+, 37°C, no increment of turbidity after 48 h, CLSI guidelines
# Method: To study the effect of magainins on metabolically active bacteria, we assessed the antimicrobial activity of the peptides by determining the MIC values according to Clinical and Laboratory Standards Institute (CLSI, formerly National Committee for Clinical Laboratory Standards) guidelines.
# Inhibition of bacterial growth by frog peptides was determined using an automated turbidimetric-based system (Bioscreen C, Labsystem, Helsinki, Finland), which measures absorbance of cell cultures in 100-well plates at regular time intervals (λ = 580 nm). Assays were performed in Mueller-Hinton (MH) broth without Ca2+ (18) using Bioscreen polystyrene honeycomb 100-well plates. Briefly, serial dilutions of the AMPs or control antibiotics (gentamicin and ampicillin B) were made in MH broth and dispensed with a multi-pipette into […]
# polystyrene honeycomb 100-well plates. E. coli K12 cells grown for 18–20 h on agar plates were suspended in saline adjusting the turbidity to an optical density at λ=565 nm (OD565) of 0.5 (~1 × 10^8 cells/mL) using a DEN-1B densitometer (Grant Instruments, Cambridge, UK).
# A fifty-fold dilution of this E. coli suspension prepared in MH broth was mixed with 50 µL (1:1 volume ratio) of a given peptide solution by three times up and down pipetting. Resulting cell suspensions were grown at 37°C with continuous, low amplitude shaking. The turbidity was measured in intervals of 5 minutes (filter bandwidth: λ= 420 – 580 nm). MIC was considered as the minimum concentration of peptide that inhibited any increment of turbidity […]
# 2011. Studies on lactoferricin-derived Escherichia coli membrane-active peptides reveal differences in the mechanism of N-acylated versus nonacylated peptides. J Biol Chem […]
# 2. Broekhuyse, R. M. 1968. Phospholipids in tissues of the eye. […]
# vinyl-ether phospholipids. Biochim Biophys Acta 152:307–315.
# Chemistry and physics of lipids 154:64–67.
# 8. Israelachvili, J. N. 2011. Intermolecular and surface forces, 3rd ed. Academic Press, […]
# [3] = ANTS/DPX leakage of POPC/POPG LUVs; type: biochemical; conditions: 1 μM peptide, lipid 50 μM, pH 7.4, 37°C, three independent measurements
# Method: as §1
# (§4) Lipid films (20 mg total lipid) for dye-release experiments were prepared by mixing the appropriate amounts of dissolved phospholipids before evaporation of solvents under a stream of nitrogen and stored in vacuum overnight. […] Liposomal lipids were quantified by the determination of lipid phosphorus according the method described by (2). […]
# (§5) Leakage of the aqueous content of ANTS/DPX-loaded LUVs upon incubation with peptides was determined according to (9) and as detailed previously (1). […]
# as §2
# [4] = ANTS/DPX leakage of lyso-PE/POPE/POPG LUVs; type: biochemical; conditions: 1 μM peptide, lipid 50 μM, pH 7.4, 37°C, three independent measurements
# Method: as §1, §4, §5, §2
# [5] = ANTS/DPX leakage of POPC LUVs; type: biochemical; conditions: within studied concentration range 0.016-1 μM, lipid 50 μM, pH 7.4, 37°C, three independent measurements
# Method: as §1, §4, §5, §2
# [6] = cited from earlier work
# From the text: Table 2 Thermodynamics of AMP Insertion in PC Membranes According to the Wimley-White Hydrophobicity Scale | column: % helix in PC
# [7] = cited from earlier work; remark: listed apart in the source
# From the text: Intriguingly, however, cytoplasmic membranes of Gram-negative bacteria are enriched in lipids with negative intrinsic curvature, such as phosphatidylethanolamine (PE) ([20]). This prompted us to correlate membrane-permeabilizing activities of magainin monomers and dimers in different lipid-only model systems with various intrinsic curvatures J0 determined from small-angle x-ray scattering (SAXS). In particular, we studied the activity of L18W-PGLa and MG2a, as well as their analogs containing GGC linkers, which were used to form the L18W-PGLa-MG2a hybrid peptide (Fig. 1). The choice of L18W-PG ...
# [8] = dimers, plateau/final value at high peptide concentration (up to 1 μM)
# [9] = individual peptides at concentrations above 0.25 μM up to 1 μM (remained at the same level), three independent measurements
Substance,"Leakage [1, 8]",Leakage [2],MIC (E. coli K12),Leakage [3],"Leakage [1, 9]",Leakage [4],Maximal leakage [5],% helix in PC [6],Dye release from lipid vesicles compared to native PGLa [7],"Permeabilization capabilities after DTT reduction ([1]; POPE/POPG vesicles, DTT (40 μM) added to peptide solution before mixing with LUVs)",Peptide concentration above which active (leakage) [2]
I: GIGKFLHSAKKFGKAFVGEIMNSGGC-NH2 / II: GIGKFLHSAKKFGKAFVGEIMNSGGC-NH2 (disulfide I:26-II:26 (inferred)) [MG2a homodimers],~60%,not able to induce significant dye release,7.8 µg/mL,–,–,–,–,–,–,–,–
GMASKAGAIAGKIAKVAWKAL-NH2 [L18W-PGLa],–,–,~31.25 µg/mL,full LUV leakage,≤ 6%,full LUV leakage,≤ 10%,72 ^b %,almost identical to that induced by native PGLa,–,–
GIGKFLHSAKKFGKAFVGEIMNS-NH2 [MG2a],–,–,62.5 µg/mL,–,≤ 6%,–,–,83 ^a %,–,–,–
I: GMASKAGAIAGKIAKVAWKALGGC-NH2 / II: GMASKAGAIAGKIAKVAWKALGGC-NH2 (disulfide I:24-II:24) [L18W-PGLa homodimers],~100%,~74%,~7.8 µg/mL,–,–,–,–,–,–,identical with that of L18W-PGLa peptide,> 0.1 µM

# — article PMC5937145, “Synergism of Antimicrobial Frog Peptides Couples to Membrane Intrinsic Curvature Strain” (Biophysical Journal, 2018)
